According to patent US10045962B2 (priority 2014, dated 2018):
Where a name gives a salt, the structure may show the parent alone.

What was measured:
[1] = tested on: Skin cancer; details: summary over cell lines, 10 μM, 72 hours
Method: (§1) These cells were seeded at an amount of 2×10^6 cells, and then added with the culture medium for cultivating the cells to a volume of 10 mL, followed by cultivation for 2 to 3 days. After counting the cell number, these cells were respectively plated in a 96-well plate, in which each well has a fixed cell number of 3000 and a volume of 100 μL.
(§2) After removing the culture medium in the 96-well plate, each well was added with 100 μL of 10 μM commercial drug and then placed for 72 hours. Thereafter, each well was further added with 100 μL of a diluted WST-1 solution (the dilution ratio for the culture medium: WST-1 stock solution (wt/wt) is 9:1).

[2] = tested on: Colorectal cancer; details: summary over cell lines, 10 μM, 72 hours
Method: as §1, §2

[3] = tested on: BEAS-2B (lung epithelial); details: 10 μM, 72 hours
Method: as §1, §2
(§3) Each cell inhibitory experiment was repeated for 4 times, followed by calculation of the mean values thereof, which were shown in the following tables.

[4] = tested on: MDA-MB-231 (mammary gland, adenocarcinoma); details: 10 μM, 72 hours
Method: as §1, §2
(§4) Each cancer cell inhibitory experiment was repeated for 4 times, followed by calculation of the mean values thereof, which were shown in the following tables.

[5] = tested on: Gastric cancer; details: summary over cell lines, 10 μM, 72 hours
Method: as §1, §2

[6] = tested on: HepG2 (hepatocellular carcinoma); details: 10 μM, 72 hours
Method: as §1, §2, §4

[7] = tested on: Prostate cancer; details: summary over cell lines, 10 μM, 72 hours
Method: as §1, §2

[8] = tested on: normal cells
Method: as §1, §2, §3

[9] = tested on: A549 (lung adenocarcinoma); details: 10 μM, 72 hours
Method: as §1, §2

[10] = tested on: Hep3B (hepatocellular carcinoma); details: 10 μM, 72 hours
Method: as §1, §2, §4

[11] = tested on: Pancreatic cancer; details: summary over cell lines, 10 μM, 72 hours
Method: as §1, §2

[12] = tested on: HEK 293 (kidney); details: 10 μM, 72 hours
Method: as §1, §2, §3

[13] = tested on: various cancer cells; details: Table 18, FIG. 1
Method: as §1, §2

[14] = tested on: NIH-OVCAR-3; details: 10 μM, 72 hours
Method: as §1, §2

[15] = tested on: HeLa (cervix adenocarcinoma); details: 10 μM, 72 hours
Method: as §1, §2

[16] = tested on: BxPC-3; details: 10 μM, 72 hours
Method: as §1, §2, §4

[17] = tested on: Liver cancer; details: summary over cell lines, 10 μM, 72 hours
Method: as §1, §2

[18] = tested on: Lung cancer; details: summary over cell lines, 10 μM, 72 hours
Method: as §1, §2

[19] = tested on: H1650 (lung adenocarcinoma); details: 10 μM, 72 hours
Method: as §1, §2

[20] = tested on: T24; details: 10 μM, 72 hours
Method: as §1, §2, §4

[21] = tested on: Breast cancer; details: summary over cell lines, 10 μM, 72 hours
Method: as §1, §2

[22] = tested on: TSGH (urinary bladder carcinoma); details: 10 μM, 72 hours
Method: as §1, §2

[23] = tested on: MCF-7 (mammary gland, adenocarcinoma); details: 10 μM, 72 hours
Method: as §1, §2

[24] = tested on: C-33A (cervical carcinoma); details: 10 μM, 72 hours
Method: as §1, §2

[25] = BEAS-2B normal lung epithelial cells, single experiment

CNCC[C@H](Oc1cccc2ccccc12)c1cccs1 [duloxetine HCl, Duloxetine hydrochloride]
Survival rate (%) [1]: 39.79%
Survival rate (%) [2]: 62.21%
Mean survival rate (%) ([3]; BEAS-2B normal lung epithelial cells, mean of 4 experiments): 72.5%
survival rate 0510-10 min [3, 25]: 59.5%
survival rate 0512-10 min [3, 25]: 76.3%
survival rate 0515-10 min [3, 25]: 74.7%
survival rate 0517-10 min [3, 25]: 79.6%
Survival rate (%) ([3]; Lung epithelial cells (BEAS-2B normal cells), summary table): 72.50%
Mean (survival rate) ([4]; mean of 3 printed experiments): 65.9%
survival rate 0612-10 min ([4]; single experiment): 53.4%
survival rate 0614-10 min ([4]; single experiment): 70.2%
survival rate 0616-10 min ([4]; single experiment): 74.3%
Survival rate (%) [5]: 41.6%
Mean survival rate (%) ([6]; mean of 4 experiments): 34.0%
survival rate 0524-20 min ([6]; single experiment): 14.8%
survival rate 0526-20 min ([6]; single experiment): 44.7%
survival rate 0529-20 min ([6]; single experiment): 37.7%
survival rate 0531-20 min ([6]; single experiment): 38.9%
Survival rate (%) [7]: 59.23%
cytotoxicity to the normal cells ([8]; normal cells): little or no cytotoxicity
selective effect between normal cells and tumor cells ([8]; normal cells versus tumor cells): selective effect
Mean survival rate (%) ([9]; mean of 4 experiments): 37.5%
survival rate 0524-10 min ([9]; single experiment): 32.8%
survival rate 0526-10 min ([9]; single experiment): 53.7%
survival rate 0529-10 min ([9]; single experiment): 33.2%
survival rate 0531-10 min ([9]; single experiment): 30.1%
Mean (survival rate) ([10]; mean of 4 experiments): 47.9%
survival rate 0612-20 min ([10]; single experiment): 41.4%
survival rate 0614-20 min ([10]; single experiment): 53.3%
survival rate 0616-20 min ([10]; single experiment): 36.2%
survival rate 0619-20 min ([10]; single experiment): 60.6%
Survival rate (%) [11]: 57.2%
Mean survival rate (%) ([12]; HEK 293 normal kidney cells, mean, single experiments not given): 62.4%
Survival rate (%) ([12]; Kidney (HEK293 normal cells), summary table): 62.44%
inhibitory effect against various cancers [13]: significant inhibitory effect
Mean survival rate (%) ([14]; mean of 4 experiments): 68.2%
survival rate 7-3-30 min ([14]; single experiment): 64.8%
survival rate 7-4-30 min ([14]; single experiment): 74.6%
survival rate 7-7-30 min ([14]; single experiment): 78.5%
survival rate -4-30 min ([14]; single experiment): 55.0%
Mean survival rate (%) ([15]; mean of 4 experiments): 33.8%
survival rate 0524-10 min ([15]; single experiment): 27.7%
survival rate 0526-10 min ([15]; single experiment): 29.9%
survival rate 0529-10 min ([15]; single experiment): 25.4%
survival rate 0531-10 min ([15]; single experiment): 52.1%
Mean survival rate (%) ([16]; mean of 4 experiments): 54.0%
survival rate 3-4-30 min ([16]; single experiment): 72.4%
survival rate 3-7-3-30 min ([16]; single experiment): 62.1%
survival rate 3-7-4-30 min ([16]; single experiment): 58.8%
survival rate 3-7-7-30 min ([16]; single experiment): 22.7%
Survival rate (%) [17]: 40.95%
Survival rate (%) [18]: 36.87%
Mean (survival rate) ([19]; mean of 4 experiments): 36.3%
survival rate 1-10 min ([19]; single experiment): 35.2%
survival rate 2-20 min ([19]; single experiment): 36.9%
survival rate 3-20 min ([19]; single experiment): 33.6%
survival rate 4-20 min ([19]; single experiment): 39.4%
Mean (survival rate) ([20]; mean of 4 experiments): 85.2%
survival rate T24-1-30 min ([20]; single experiment): 81.7%
survival rate T24-2-20 min ([20]; single experiment): 90.6%
survival rate T24-3-20 min ([20]; single experiment): 71.4%
survival rate T24-4-20 min ([20]; single experiment): 97.2%
Survival rate (%) [21]: 48.57%
Mean survival rate (%) ([22]; mean of 4 experiments): 49.2%
survival rate 0510-10 min ([22]; single experiment): 36.1%
survival rate 0512-10 min ([22]; single experiment): 59.0%
survival rate 0515-10 min ([22]; single experiment): 61.2%
survival rate 0517-10 min ([22]; single experiment): 40.5%
Mean survival rate (%) ([23]; mean of 4 experiments): 31.2%
survival rate 0612-10 min ([23]; single experiment): 29.0%
survival rate 0614-10 min ([23]; single experiment): 37.3%
survival rate 0616-10 min ([23]; single experiment): 30.0%
survival rate 0619-10 min ([23]; single experiment): 28.5%
Mean survival rate (%) ([24]; mean of 4 experiments): 40.7%
survival rate 0524-10 min ([24]; single experiment): 34.3%
survival rate 0526-10 min ([24]; single experiment): 52.4%
survival rate 0529-10 min ([24]; single experiment): 33.7%
survival rate 0531-10 min ([24]; single experiment): 42.4%
